TGI and GI50 data for 15 compounds are collected here from PubChem BioAssay (NCI).

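48-hour exposure; five concentrations; linearly interpolated endpoints. At the GI50, growth is halved. TGI denotes the concentration required for complete inhibition of growth.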 Where a SMILES comes first, the peptide text is derived from it. The star is where a group is joined. Boc = CC(C)(C)OC(=O)*; OBn = c1ccc(CO*)cc1

Test in all cases: NCI-60 cell line screen, 48 h
Assay [1] has as its system PC-3 prostate.
Assay [2] has as its system NCI-H522 lung.
Assay [3] deals with SK-MEL-5 melanoma.
For assay [4], the system named is TK-10 renal.
Assay [5] relates to HT29 colon.
Assay [6] concerns MDA-MB-231 breast.
Assay [7] concerns DU-145 prostate.
In assay [8] the test system is RPMI-8226 leukemia.
For assay [9], the system named is 786-0 renal.
The test system of assay [10] is UO-31 renal.
Assay [11] has as its system HS 578T breast.

As for `[N-]=[N+]=CC(=O)OCC1SCCCS1`, the TGI in assay [1], in [2], in assay [3], in assay [4], in assay [5] and in assay [6] was more than 100 µM in each case. Further, the TGI in assay [7], in [8], in assay [9] and in assay [10] was more than 100 µM each time.

`O=C(N/N=C/c1cc(Cl)cc(Cl)c1[O-])c1ccccc1O.O=C(N/N=C/c1cc(Cl)cc(Cl)c1[O-])c1ccccc1O.[Ni+2]`: the TGI in [2] was determined as 0.823 µM; in assay [3], 1.18 µM; in [4], 7.81 µM; in assay [5], 3.4 µM; in [10], 10.1 µM.

For the compound `C/C(=N\NC(N)=S)C(CN(CC(C)C)CC(C)C)C(=O)Nc1ccc(C)cc1C` (centres undefined), the TGI in [2], in [3], in assay [4], in [5], in [9] and in [10] was more than 100 µM in each case.

Consider `Cc1cc(S(=O)(=O)O)c(NC(=O)C(=O)C2C=CCS2(=O)=O)cc1Cl` (centres undefined), for which the TGI in assay [2], in assay [3], in [4], in [5], in [8] and in [9] was more than 100 µM throughout. The same compound yielded a TGI in [10] of more than 100 µM.

On to `N#C[S-].[Nd+3].c1ccc(-c2ccccn2)nc1.c1ccc(-c2ccccn2)nc1.c1ccc(-c2ccccn2)nc1`, for which the GI50 in [3] was 1.53 µM; in assay [4], 5.05 µM; in [5], 4.83 µM; in assay [10], 2.19 µM. Besides, the TGI is 4.77 µM in [3], more than 100 µM in assay [4], more than 100 µM in [5] and 5.5 µM in assay [10].

Take `CC(NC(=O)C(NC(=O)OC(C)(C)C)C(C)C)C(=O)N1CCCC1C(=O)NCC(=O)NC(C(=O)NCC(=O)OCc1ccccc1)C(C)C` (centres undefined) (Boc-VAPGVG-OBn; configuration not given here): the TGI in assay [1], in assay [2], in assay [4], in assay [5], in [6] and in assay [7] was more than 100 µM throughout. The TGI in [8], in assay [9] and in [10] was more than 100 µM throughout.

As to `CSC1=C(C#N)C(=O)N(c2ccc(C)cc2)C(=S)C1C#N` (centres undefined), the TGI in [1], in assay [2], in assay [3], in assay [4], in assay [5] and in assay [6] was more than 100 µM throughout. Moreover, the TGI in assay [9] and in assay [11] was more than 100 µM in each case.

Regarding `O=C1c2c(n(Cc3ccccc3)c(=O)n2Cc2ccccc2)C(=O)N1Cc1ccccc1`, the TGI in [2], in [3], in [4], in assay [5], in assay [8] and in [9] was more than 100 µM each time. This compound yielded a TGI in [10] of more than 100 µM.

On to `CCOC(=O)C(=Cc1ccc(C(=O)OC)cc1)C(=O)OCC`, for which the TGI in [2] was 2.8 µM; in assay [3], 4.64 µM; in assay [4] it was 7.34 µM; in assay [5], 18.1 µM; in [8], 4.73 µM; in assay [9], 3.15 µM.

`COC(=O)c1cc(C#N)[nH]c1-c1ccc(C)s1`: the TGI in assay [1] is 46.4 µM; in [2] it was 89.7 µM; in [6], more than 100 µM; in [7], more than 100 µM; in assay [8], more than 100 µM; in assay [9], more than 100 µM. The compound further gave a TGI in assay [10] of more than 100 µM.

`COc1ccc(-c2c(N)n(-c3cccc(C(=O)O)c3)c(=O)c3cc([N+](=O)[O-])ccc23)cc1`: the TGI in assay [1], in [2], in assay [3], in [4], in assay [5] and in [7] was more than 100 µM in each case. Besides, the TGI in [8], in assay [9], in assay [10] and in assay [11] was more than 100 µM throughout.

For `O=C(NC1CCN(Cc2ccccc2)CC1)c1cc2nc(-c3ccc(Cl)s3)cc(C(F)(F)F)n2n1`, the GI50 in assay [2] was 8.45 µM; in assay [3] it was 6.34 µM; in assay [4], 12.5 µM; in assay [5], 3.14 µM; in [7] it was more than 100 µM; in [10], more than 100 µM. Moreover, in [11], the GI50 is 10.9 µM. Besides, the TGI in assay [2], in assay [3], in assay [4], in assay [5], in assay [7] and in [10] was more than 100 µM throughout. The compound also registered a TGI in assay [11] of more than 100 µM.

Turning to `[N-]=[N+]=NCc1cccc(Nc2cc(=O)[nH]c(=O)[nH]2)c1`, the TGI in assay [2], in [3], in [4], in assay [5], in assay [7] and in [8] was more than 100 µM each time. Moreover, the TGI in assay [9], in assay [10] and in assay [11] was more than 100 µM each time.

As to `Cc1ccc(N2CCc3c(C)c(C#N)c4nc5ccccc5n4c32)cc1`, the TGI in [1], in assay [2], in [3], in assay [4], in [5] and in [7] was more than 100 µM each time. Besides, the TGI was more than 100 µM in assay [9], more than 100 µM in assay [10] and 48.3 µM in [11].

For `COC(=O)/C=C1\CCC(C)(C(=O)NS(=O)(=O)c2ccc(C)cc2)C1(C)C` (centres undefined), the TGI in assay [1], in [2], in assay [3], in assay [4], in assay [6] and in [7] was more than 100 µM in each case. Moreover, the TGI in assay [8], in assay [9] and in assay [10] was more than 100 µM in each case.
